Laboratory results: ChEMBL document CHEMBL1201862, “PubChem BioAssay data set” (2004)
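These data come from cells grown in 96-well plates and exposed to compound for 48 hours at five concentrations. The concentration for 50% growth inhibition is given as GI50.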 The source made the active and inactive calls. No stated cut-off is given here; in the data, active = GI50 up to about 1.1 µM and inactive = higher.

Columns and labels:
Assay in all cases: inhibition of tumour cell growth, NCI panel, 48 h
[1] = tested on: OVCAR-5
[2] = tested on: CAKI-1
[3] = tested on: RPMI-8226
[4] = tested on: SNB-75
[5] = tested on: SK-MEL-28
[6] = tested on: NCI-H522
[7] = tested on: MOLT-4
[8] = tested on: SK-MEL-2
[9] = tested on: UO-31
[10] = tested on: MDA-MB-435
[11] = tested on: DU-145
[12] = tested on: MDA-N
[13] = tested on: IGROV-1
[14] = tested on: SK-MEL-5
[15] = tested on: MDA-MB-231
[16] = tested on: CCRF-CEM
[17] = tested on: SF-295
[18] = tested on: NCI-H460
[19] = tested on: HCT-15
[20] = tested on: NCI-H226

Row | Compound | GI50 [1] | GI50 [2] | GI50 [3] | GI50 [4] | GI50 [5] | GI50 [6] | GI50 [7] | GI50 [8] | GI50 [9] | GI50 [10] | GI50 [11] | GI50 [12] | GI50 [13] | GI50 [14] | GI50 [15] | GI50 [16] | GI50 [17] | GI50 [18] | GI50 [19] [µM] | GI50 [20]
1 | CN(/N=C(\C(=O)O)c1ccccc1)C1=NCCN1 | > 100 µM (inactive) | > 100 µM (inactive) | > 100 µM (inactive) | > 100 µM (inactive) | > 100 µM (inactive) | > 100 µM (inactive) | > 100 µM (inactive) | > 100 µM (inactive) | > 100 µM (inactive) | > 100 µM (inactive) | > 100 µM (inactive) | > 100 µM (inactive) | 54.2 µM (inactive) | > 100 µM (inactive) | > 100 µM (inactive) | > 100 µM (inactive) | > 100 µM (inactive) | > 100 µM (inactive) | > 100 | > 100 µM (inactive)
2 | CCOC(=O)C1=C(C)NC(C)=C(C(=O)OCCNC(=O)c2ccc(N=[N+]=[N-])cc2)C1c1ccccc1C(F)(F)F (stereo not given) [AZIDOPINE] | 19.9 µM (inactive) | 12.4 µM (inactive) | 4.37 µM (inactive) | > 10 µM (inactive) | 13.4 µM (inactive) | 8.39 µM (inactive) | 4.09 µM (inactive) | 6.53 µM (inactive) | 4.79 µM (inactive) | 9.27 µM (inactive) | 10.5 µM (inactive) | 10.2 µM (inactive) | 18.7 µM (inactive) | 7.85 µM (inactive) | 14 µM (inactive) | 6.55 µM (inactive) | 8.61 µM (inactive) | 9.12 µM (inactive) | 8.45 | 15 µM (inactive)
3 | C/C=C(/CBr)CCC(Br)C(C)(C)Cl.C/C=C(\CBr)CCC(Br)C(C)(C)Cl (stereo not given) | > 10 µM (inactive) | > 10 µM (inactive) | > 10 µM (inactive) | > 10 µM (inactive) | > 10 µM (inactive) | > 10 µM (inactive) | > 10 µM (inactive) | > 10 µM (inactive) | > 10 µM (inactive) | > 10 µM (inactive) | > 10 µM (inactive) | > 10 µM (inactive) | > 10 µM (inactive) | > 10 µM (inactive) | > 10 µM (inactive) | > 10 µM (inactive) | > 10 µM (inactive) | > 10 µM (inactive) | > 10 | > 10 µM (inactive)
4 | CCOC(=O)C(NC(=O)CC(C)C)(N1CCN(c2cc3c(cc2F)c(=O)c(C(=O)O)cn3C2CC2)CC1)C(F)(F)F (stereo not given) | 17.7 µM (inactive) | 24.9 µM (inactive) | 20.9 µM (inactive) | 21.4 µM (inactive) | 20.9 µM (inactive) | 2.73 µM (inactive) | 5.71 µM (inactive) | 20 µM (inactive) | 17.9 µM (inactive) | 21.9 µM (inactive) | 34.4 µM (inactive) | 20.3 µM (inactive) | 12.6 µM (inactive) | 12.7 µM (inactive) | 22 µM (inactive) | 3.32 µM (inactive) | 21.3 µM (inactive) | 28.1 µM (inactive) | 10 | 20.7 µM (inactive)
5 | CC1(C)S[C@@H]2[C@H](NC(=O)/C=C/c3ccccc3)C(=O)N2[C@H]1C(=O)O | > 100 µM (inactive) | > 100 µM (inactive) | > 100 µM (inactive) | 47.9 µM (inactive) | 69.5 µM (inactive) | > 100 µM (inactive) | > 100 µM (inactive) | > 100 µM (inactive) | > 100 µM (inactive) | > 100 µM (inactive) | > 100 µM (inactive) | > 100 µM (inactive) | > 100 µM (inactive) | > 100 µM (inactive) | > 100 µM (inactive) | > 100 µM (inactive) | > 100 µM (inactive) | > 100 µM (inactive) | > 100 | > 100 µM (inactive)
6 | C=CCC(C(=O)O)c1ccccc1 (stereo not given) | > 100 µM (inactive) | > 100 µM (inactive) | > 100 µM (inactive) | > 100 µM (inactive) | > 100 µM (inactive) | > 100 µM (inactive) | > 100 µM (inactive) | > 100 µM (inactive) | > 100 µM (inactive) | > 100 µM (inactive) | > 100 µM (inactive) | > 100 µM (inactive) | > 100 µM (inactive) | > 100 µM (inactive) | > 100 µM (inactive) | > 100 µM (inactive) | > 100 µM (inactive) | > 100 µM (inactive) | > 100 | > 100 µM (inactive)
7 | CNC(=O)c1nn[nH]c1O | > 100 µM (inactive) | > 100 µM (inactive) | > 100 µM (inactive) | 74.1 µM (inactive) | > 100 µM (inactive) | > 100 µM (inactive) | > 100 µM (inactive) | > 100 µM (inactive) | > 100 µM (inactive) | > 100 µM (inactive) | > 100 µM (inactive) | > 100 µM (inactive) | > 100 µM (inactive) | > 100 µM (inactive) | > 100 µM (inactive) | > 100 µM (inactive) | > 100 µM (inactive) | > 10 µM (inactive) | > 100 | > 100 µM (inactive)
8 | N=C(N)SCCCN | 32.6 µM (inactive) | 4.32 µM (inactive) | 18.5 µM (inactive) | 33.7 µM (inactive) | 28.2 µM (inactive) | 5.41 µM (inactive) | 0.368 µM (active) | 13.2 µM (inactive) | 17.7 µM (inactive) | 3.18 µM (inactive) | 20.4 µM (inactive) | 3.95 µM (inactive) | 3.83 µM (inactive) | 15 µM (inactive) | 3.3 µM (inactive) | 1.39 µM (inactive) | 21.6 µM (inactive) | 4.13 µM (inactive) | 5.02 | 18.3 µM (inactive)
9 | CSc1ccc(C(=O)C(=O)c2ccc(SC)s2)s1 | > 10 µM (inactive) | > 10 µM (inactive) | 4.86 µM (inactive) | > 10 µM (inactive) | > 10 µM (inactive) | > 10 µM (inactive) | 2.51 µM (inactive) | > 10 µM (inactive) | > 10 µM (inactive) | 4.34 µM (inactive) | > 10 µM (inactive) | 4.6 µM (inactive) | > 10 µM (inactive) | > 10 µM (inactive) | > 10 µM (inactive) | 3.15 µM (inactive) | > 10 µM (inactive) | > 10 µM (inactive) | > 10 | > 10 µM (inactive)
10 | CCCCCCCCCCCCc1ccsc1-c1ccc(-c2ccc(-c3sccc3CCCCCCCCCCCC)s2)s1 | > 100 µM (inactive) | > 100 µM (inactive) | > 100 µM (inactive) | > 100 µM (inactive) | > 100 µM (inactive) | > 100 µM (inactive) | > 100 µM (inactive) | > 100 µM (inactive) | > 100 µM (inactive) | > 100 µM (inactive) | > 100 µM (inactive) | > 100 µM (inactive) | > 100 µM (inactive) | > 100 µM (inactive) | > 100 µM (inactive) | > 100 µM (inactive) | > 100 µM (inactive) | > 100 µM (inactive) | > 100 | > 100 µM (inactive)
11 | Cc1cccc(C)c1NC(=O)C(C#N)C1=C(Cl)C(=O)c2ccccc2C1=O (stereo not given) | 19.3 µM (inactive) | 18.5 µM (inactive) | 8.67 µM (inactive) | 15.7 µM (inactive) | 20.2 µM (inactive) | 10.5 µM (inactive) | 1.93 µM (inactive) | 14.4 µM (inactive) | 13.6 µM (inactive) | 17.2 µM (inactive) | 14.5 µM (inactive) | 14.4 µM (inactive) | 17 µM (inactive) | 13 µM (inactive) | 18.6 µM (inactive) | 1.62 µM (inactive) | 16.3 µM (inactive) | 22.1 µM (inactive) | 19.1 | 12.1 µM (inactive)
12 | O=C1/C(=C\c2ccccc2)C(NC2CCCCC2)c2ccccc21 (stereo not given) | 4.17 µM (inactive) | 1.48 µM (inactive) | 0.387 µM (active) | 2.17 µM (inactive) | 2.54 µM (inactive) | 0.578 µM (active) | 0.817 µM (active) | 2.24 µM (inactive) | 1.1 µM (active) | 1.52 µM (inactive) | 1.53 µM (inactive) | 1.43 µM (inactive) | 2.99 µM (inactive) | 2.37 µM (inactive) | 2.23 µM (inactive) | 0.124 µM (active) | 18.8 µM (inactive) | 2.71 µM (inactive) | 2.15 | 6.24 µM (inactive)
13 | CC1CCC2C(C(=O)O[C@H]3C4C=CO[C@@H](OC5OC(CO)C(O)C(O)C5O)C4[C@@]4(CO)O[C@@H]34)=CO[C@@H](OC3OC(CO)C(O)C(O)C3O)C12 (stereo not given in full) | > 10 µM (inactive) | > 10 µM (inactive) | > 10 µM (inactive) | > 10 µM (inactive) | > 10 µM (inactive) | > 10 µM (inactive) | > 10 µM (inactive) | > 10 µM (inactive) | > 10 µM (inactive) | > 10 µM (inactive) | > 10 µM (inactive) | > 10 µM (inactive) | > 10 µM (inactive) | > 10 µM (inactive) | > 10 µM (inactive) | > 10 µM (inactive) | > 10 µM (inactive) | > 10 µM (inactive) | > 10 | > 10 µM (inactive)
14 | c1ccc(/C(=N/Nc2ccncn2)c2ccccn2)cc1 | 34.5 µM (inactive) | 15.5 µM (inactive) | 9.75 µM (inactive) | 18.9 µM (inactive) | 70.3 µM (inactive) | 0.776 µM (active) | 3.47 µM (inactive) | 44.8 µM (inactive) | 15.5 µM (inactive) | 48.6 µM (inactive) | 34.6 µM (inactive) | 58.5 µM (inactive) | 17 µM (inactive) | 15.4 µM (inactive) | 32.2 µM (inactive) | 1.65 µM (inactive) | 23.1 µM (inactive) | 30.1 µM (inactive) | 24.4 | 15.8 µM (inactive)
